Source: patent US10858308B2, “Compounds and compositions” (priority 2017, dated 2020)
Marks after values point to notes of the source that are not given here.

Key:
[1] = system: Herpes Simplex virus-1 (HSV 1); assay: HSV 1 spread and plaque assay in Vero cells
[2] = system: Salmonella enterica serovar Typhimurium ATCC 14028; assay: MIC by broth dilution assay, Salmonella Typhimurium; type: cell-based; details: for MIC: Salmonella enterica, read-out: Sample's MIC
Protocol: (§1) Minimal inhibitory concentration (MIC) of each compound was tested by broth dilution assay.
(§2) • McFarland standard 0.5 • Falcon round-bottom 5 ml tubes • Disposable loops (1 μl and 10 μl) • Graduated pipettes (20 μl-1000 μl) • Disposable Petri dishes Media • Sterile normal saline • TSB (Tryptic Soy Broth) • TSA (Tryptic Soy Agar) Bacterial and Fungal strains • Salmonella enterica serovar Typhimurium ATCC 14028 • Staphylococcus aureus ATCC 6538 • Candida albicans ATCC 10231
(§3) Compounds 2, 3 and 4 were diluted in dimethyl sulfoxide (DMSO) at 10 mg/ml and were future 2-fold diluted for testing in TSB.
(§4) From a pure o/n culture, material from at least 3-4 colonies was chosen and suspended totally in 4 ml saline in tubes. The suspension was mixed.
(§5) The turbidity of inoculum was adjusted to match that of standard by comparing visually with the McFarland 0.5 standard using white paper with black lines as background.
(§6) The McFarland 0.5 suspension were diluted as follows for the species tested at this course:
Gr-neg.: 10 μl McFarl. 0.5 into 10 ml broth
(§7) The suspensions were used for inoculation within 15 minutes.
(§8) The Falcon round-bottom 5 ml tubes were inoculated with 500 μl of the inoculum suspension with 500 μl two-fold dilutions of antimicrobial agent using a graduated pipette
(§9) Tubes were sealed and incubated at 37° C. for 18-22 hours. This was done to avoid losing growth media and to avoid cross contamination.
(§10) McFarland 0.5 is approximately 10^8 CFU/ml. Standardization of inoculum is essential because the interpretation of the results is based on a certain inoculum.
(§11) Each tube contained approximately 5×10^5-1×10^6 CFU/ml after inoculation of bacteria and […] 5×10^3-1×10^4 CFU/ml of yeast.
(§12) Purity of the inoculum suspension was checked.
(§13) Growth in the 3 positive control tubes was checked.
(§14) Minimal inhibitory concentration (MIC) was recorded as the lowest concentration of antimicrobial agent with no visible growth.

[3] = system: Staphylococcus aureus ATCC 6538; assay: MIC by broth dilution assay, Staphylococcus aureus; type: cell-based; details: ATCC6538, 37° C. 18-22 hours, 4 experiments, inoculum 1.2-2.1 × 10^6 cfu/ml, range bacteriostatic-bactericide concentration, read-out: Sample's MIC
Protocol: as §1, §2, §3, §4, §5, §6
Gr-pos.: 50 μl McFarl. 0.5 into 10 ml broth
as §7
The Falcon round-bottom 5 ml tubes were inoculated with 500 μl of the inoculum suspension with 500 μl two-fold dilutions of antimicrobial agent using a graduated pipette […]
as §14

[4] = system: Candida albicans ATCC 10231; assay: MIC by broth dilution assay, Candida albicans; type: cell-based; details: 4 experiments, inoculum 3-6.5 × 10^3 cfu/ml, range bacteriostatic-bactericide concentration; for Sample's MIC: 37° C. 18-22 hours; for MIC: ATCC10231, 37° C. 18-22 hours, read-out: Sample's MIC
Protocol: as §1, §2, §3, §4, §5, §6, §7, §8, §9, §10, §11, §12, §13, §14

[5] = system: Vaccinia virus (WR-VV); type: cell-based; set-up: dose or concentration left out as unconfirmed; details: BSC 40 cells pre-treated
[6] = pH of aqueous solution; type: physicochemical
[7] = Surfactant activity; type: physicochemical
[8] = in the presence of 100 μg/ml of the compounds
[9] = in the presence of the compounds

| Molecule | HSV-1 infectivity reduced by [1, 8] [%] | HSV-1 infectivity reduced by [1, 9] [%] | melting point [°C] | MIC [2] [µg/mL] | MIC [3] [µg/mL] | Sample's MIC [4] | MIC [4] [µg/mL] | inhibition of Vaccinia virus plaque formation [5] | inhibitory effect on HSV 1 spreading and plaque number ([1]; pre-treated, liquid and agar plaque assay, two days of infection, dose dependent) | Aqueous solution pH [6] | Surfactant activity [7] | Sample's MIC ([2]; Salmonella enterica serovar Typhimurium ATCC 14028, broth dilution, 37° C. 18-22 hours, 4 experiments, inoculum 5 × 10^3 cfu/ml, range bacteriostatic-bactericide concentration) [µg/mL] |
| --- | --- | --- | --- | --- | --- | --- | --- | --- | --- | --- | --- | --- |
| Cc1ccc(C(C)C)c(OC(=O)C[N+](C)(C)CCCCCCCCCC[N+](C)(C)CC(=O)Oc2cc(C(C)C)ccc2C)c1 [Compound 2, N^1-{2-[2-methyl-5-(propan-2-yl)phenoxy]-2-oxoethyl}-N^1,N^1,N^10,N^10-tetramethyl-N^10-{2-[5-methyl-2-(propan-2-yl)phenoxy]-2oxoethyl}decane-1,10-bis(aminium) dichloride] | 80 | 50 | 92 to 96 | 62.5 to 125 | 31.2 to 62.5 | 62.5-125* μg/ml | 62.5 to 125 |  |  |  |  |  |
| Cc1ccc(C(C)C)c(OC(=O)C[N+](C)(C)CCCCCCCCCC[N+](C)(C)CCCCCCCCCC[N+](C)(C)CC(=O)Oc2cc(C(C)C)ccc2C)c1 [Compound 3, N^1-{{2-[2-methyl-5-(propan-2-yl)phenoxy]-(2-oxoethyldimethyl)azaniumyl bromide}decyl}-N^10-{2-[5-methyl-2-(propan-2-yl)phenoxy]-2oxoethyl}-N^1,N^1,N^1,N^10,N^10-tetramethyldecane-1,10-bis(aminium) dichloride] | 80 | 50 |  | 31.2 to 62.5 | 15.6 to 31.2 |  | 31.2 to 62.5 | none of compounds 2 or 3 inhibited Vaccinia virus (VV) plaque formation | strong inhibitory effect | 7.2 | Displays Surfactant Activity |  |
| N^1-{2-[2-methyl-5-(propan-2-yl)phenoxy]-2-oxoethyl}-N^1,N^1,N^10,N^10-tetramethyl-N^10-{2-[5-methyl-2-(propan-2-yl)phenoxy]-2oxoethyl}decane-1,10-bis(aminium) dichloride [Compound 4] |  |  |  |  |  | 31.25 to 62.5 µg/mL |  |  |  |  |  | 31.25 to 62.5 |
